ChEMBL document CHEMBL4316588, “Design, Synthesis, and Biological Evaluation of Novel DNA Gyrase-Inhibiting Spiropyrimidinetriones as Potent Antibiotics for Treatment of Infections Caused by Multidrug-Resistant Gram-Positive Bacteria” (J Med Chem, 2019)
In brackets after ≈: the same amount, converted by molar mass.

What was measured:
Staphylococcus aureus [1] = experiment: Antibacterial activity against methicillin-sensitive Staphylococcus aureus infected in Kunming mouse dosed subcutaneously at 0.5 and 4.0 hrs postinfection and measured at 7 to 14 days post treatment by Bliss method; type: functional; conditions: sc
Staphylococcus aureus [2] = experiment: Antibacterial activity against methicillin-resistant Staphylococcus aureus infected in Kunming mouse dosed subcutaneously at 0.5 and 4.0 hrs postinfection and measured at 7 to 14 days post treatment by Bliss method; type: functional; conditions: sc
Staphylococcus aureus [3] = experiment: Antibacterial activity against methicillin-sensitive Staphylococcus aureus after 18 to 20 hrs by CLSI-protocol based broth microdilution method; type: functional; conditions: Staphylococcus aureus; read-out: MIC
Staphylococcus aureus [4] = experiment: Antibacterial activity against methicillin-resistant Staphylococcus aureus after 18 to 20 hrs by CLSI-protocol based broth microdilution method; type: functional
[5] = tested on: Staphylococcus epidermidis; experiment: Antibacterial activity against methicillin-sensitive Staphylococcus epidermidis after 18 to 20 hrs by CLSI-protocol based broth microdilution method; type: functional
[6] = tested on: Staphylococcus epidermidis; experiment: Antibacterial activity against methicillin-resistant Staphylococcus epidermidis after 18 to 20 hrs by CLSI-protocol based broth microdilution method; type: functional
Streptococcus pneumoniae = experiment: Antibacterial activity against penicillin-resistant Streptococcus pneumoniae after 18 to 20 hrs by CLSI-protocol based broth microdilution method; type: functional
Streptococcus pyogenes = experiment: Antibacterial activity against Streptococcus pyogenes after 18 to 20 hrs by CLSI-protocol based broth microdilution method; type: functional; conditions: Streptococcus pyogenes; read-out: MIC
[7] = biological target: DNA topoisomerase 2-alpha (Homo sapiens, UniProt P11388); experiment: Inhibition of human topoisomerase-2alpha using catenated DNA as substrate after 30 mins by ethidium bromide-based gel electrophoresis
DNA topoisomerase 2-alpha, sequence (P11388 whole entry): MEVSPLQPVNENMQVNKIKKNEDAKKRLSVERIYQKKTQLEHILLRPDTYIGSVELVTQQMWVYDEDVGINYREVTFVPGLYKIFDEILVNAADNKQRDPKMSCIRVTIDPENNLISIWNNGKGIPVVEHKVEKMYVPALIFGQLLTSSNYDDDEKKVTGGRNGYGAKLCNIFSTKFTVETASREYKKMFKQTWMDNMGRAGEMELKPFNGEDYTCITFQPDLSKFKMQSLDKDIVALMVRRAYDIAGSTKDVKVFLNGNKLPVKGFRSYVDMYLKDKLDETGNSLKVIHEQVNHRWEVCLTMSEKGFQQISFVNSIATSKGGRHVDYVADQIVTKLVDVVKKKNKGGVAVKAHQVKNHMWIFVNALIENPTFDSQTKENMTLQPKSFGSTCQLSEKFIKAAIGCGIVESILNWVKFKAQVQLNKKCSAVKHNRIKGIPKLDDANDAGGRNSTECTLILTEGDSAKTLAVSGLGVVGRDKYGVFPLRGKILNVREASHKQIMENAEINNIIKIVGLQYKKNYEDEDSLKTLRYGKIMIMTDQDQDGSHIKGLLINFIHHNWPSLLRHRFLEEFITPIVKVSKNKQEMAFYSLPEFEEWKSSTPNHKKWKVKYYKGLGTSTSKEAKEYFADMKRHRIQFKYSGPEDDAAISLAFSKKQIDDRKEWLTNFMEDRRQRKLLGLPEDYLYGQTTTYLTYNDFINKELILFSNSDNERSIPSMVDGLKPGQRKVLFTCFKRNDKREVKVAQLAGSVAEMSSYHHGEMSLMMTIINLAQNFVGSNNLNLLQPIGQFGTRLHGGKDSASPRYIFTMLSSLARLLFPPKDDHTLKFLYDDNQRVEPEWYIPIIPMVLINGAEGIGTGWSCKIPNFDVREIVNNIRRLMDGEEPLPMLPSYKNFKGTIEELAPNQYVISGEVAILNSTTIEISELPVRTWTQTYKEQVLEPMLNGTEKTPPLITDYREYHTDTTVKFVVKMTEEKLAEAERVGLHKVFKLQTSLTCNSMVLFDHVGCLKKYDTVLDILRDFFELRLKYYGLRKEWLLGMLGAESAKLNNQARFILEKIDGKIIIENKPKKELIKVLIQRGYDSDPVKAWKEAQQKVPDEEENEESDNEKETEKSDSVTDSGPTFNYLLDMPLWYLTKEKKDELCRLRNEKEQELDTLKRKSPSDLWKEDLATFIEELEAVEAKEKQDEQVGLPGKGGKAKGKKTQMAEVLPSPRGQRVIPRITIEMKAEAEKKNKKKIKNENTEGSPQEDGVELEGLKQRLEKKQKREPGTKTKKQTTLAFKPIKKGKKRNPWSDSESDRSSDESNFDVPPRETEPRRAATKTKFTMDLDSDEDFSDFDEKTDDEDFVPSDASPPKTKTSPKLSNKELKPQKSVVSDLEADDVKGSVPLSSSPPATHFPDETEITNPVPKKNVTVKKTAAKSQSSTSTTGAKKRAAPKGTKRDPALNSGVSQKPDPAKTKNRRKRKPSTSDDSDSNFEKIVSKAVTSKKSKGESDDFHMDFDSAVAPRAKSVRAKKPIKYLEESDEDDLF

DNA gyrase = DNA gyrase (Staphylococcus aureus, UniProt P0A0K8+P20831)
DNA gyrase, sequence (P0A0K8 whole entry): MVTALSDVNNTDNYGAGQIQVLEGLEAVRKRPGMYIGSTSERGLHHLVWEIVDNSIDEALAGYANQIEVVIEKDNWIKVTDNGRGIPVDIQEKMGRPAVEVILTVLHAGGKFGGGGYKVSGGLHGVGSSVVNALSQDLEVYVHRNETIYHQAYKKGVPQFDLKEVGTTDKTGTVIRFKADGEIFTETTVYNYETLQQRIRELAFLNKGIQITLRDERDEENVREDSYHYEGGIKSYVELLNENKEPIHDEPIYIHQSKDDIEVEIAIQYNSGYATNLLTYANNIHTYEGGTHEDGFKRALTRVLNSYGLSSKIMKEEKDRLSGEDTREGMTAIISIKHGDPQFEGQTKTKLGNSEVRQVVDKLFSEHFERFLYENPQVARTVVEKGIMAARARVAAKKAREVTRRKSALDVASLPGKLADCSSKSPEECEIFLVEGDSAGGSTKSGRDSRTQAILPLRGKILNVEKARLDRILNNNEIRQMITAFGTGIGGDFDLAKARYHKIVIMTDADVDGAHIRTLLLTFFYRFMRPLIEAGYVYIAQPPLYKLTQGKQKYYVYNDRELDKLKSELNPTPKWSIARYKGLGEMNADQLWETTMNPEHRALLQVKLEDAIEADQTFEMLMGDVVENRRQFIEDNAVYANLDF
DNA gyrase, sequence (P20831 whole entry): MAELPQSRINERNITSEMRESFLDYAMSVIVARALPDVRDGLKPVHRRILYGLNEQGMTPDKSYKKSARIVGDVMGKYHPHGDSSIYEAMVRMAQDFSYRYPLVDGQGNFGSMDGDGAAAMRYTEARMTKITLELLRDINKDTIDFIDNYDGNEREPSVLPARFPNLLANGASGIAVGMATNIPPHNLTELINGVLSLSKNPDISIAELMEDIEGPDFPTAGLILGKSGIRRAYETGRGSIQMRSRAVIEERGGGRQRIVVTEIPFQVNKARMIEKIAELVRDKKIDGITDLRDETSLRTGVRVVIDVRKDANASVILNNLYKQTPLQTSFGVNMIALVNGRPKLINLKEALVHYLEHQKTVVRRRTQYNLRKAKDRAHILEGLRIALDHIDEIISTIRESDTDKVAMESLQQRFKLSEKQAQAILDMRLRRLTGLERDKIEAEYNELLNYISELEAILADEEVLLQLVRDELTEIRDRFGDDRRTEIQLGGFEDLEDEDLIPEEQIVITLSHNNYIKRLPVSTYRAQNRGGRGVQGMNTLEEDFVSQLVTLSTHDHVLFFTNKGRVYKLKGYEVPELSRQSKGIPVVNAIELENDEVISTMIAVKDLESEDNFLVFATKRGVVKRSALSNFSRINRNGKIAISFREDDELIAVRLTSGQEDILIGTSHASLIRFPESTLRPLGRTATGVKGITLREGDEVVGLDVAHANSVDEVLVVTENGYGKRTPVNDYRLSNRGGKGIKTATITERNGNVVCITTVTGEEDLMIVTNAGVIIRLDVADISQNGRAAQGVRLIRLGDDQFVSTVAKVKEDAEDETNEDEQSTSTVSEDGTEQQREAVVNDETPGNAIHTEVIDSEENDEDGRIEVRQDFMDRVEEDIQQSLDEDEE
Description: Inhibition of Staphylococcus aureus DNA gyrase supercoiling activity using relaxed pHOT-1 DNA as substrate after 60 mins by ethidium bromide-based gel electrophoresis

Neisseria gonorrhoeae = experiment: Antibacterial activity against Neisseria gonorrhoeae after 18 to 20 hrs by CLSI-protocol based agar microdilution method; type: functional
[8] = Tmax in CD1 mouse at 10 mg/kg, po by LC-MS/MS analysis; type: ADME, organism-based; conditions: in vivo
[9] = biological target: Voltage-gated inwardly rectifying potassium channel KCNH2 (Homo sapiens, UniProt Q12809); experiment: Inhibition of human ERG expressed in CHO cells in at -80 mV holding potential by automated Qpatch clamp assay; type: cell-based
Voltage-gated inwardly rectifying potassium channel KCNH2, sequence (Q12809 whole entry): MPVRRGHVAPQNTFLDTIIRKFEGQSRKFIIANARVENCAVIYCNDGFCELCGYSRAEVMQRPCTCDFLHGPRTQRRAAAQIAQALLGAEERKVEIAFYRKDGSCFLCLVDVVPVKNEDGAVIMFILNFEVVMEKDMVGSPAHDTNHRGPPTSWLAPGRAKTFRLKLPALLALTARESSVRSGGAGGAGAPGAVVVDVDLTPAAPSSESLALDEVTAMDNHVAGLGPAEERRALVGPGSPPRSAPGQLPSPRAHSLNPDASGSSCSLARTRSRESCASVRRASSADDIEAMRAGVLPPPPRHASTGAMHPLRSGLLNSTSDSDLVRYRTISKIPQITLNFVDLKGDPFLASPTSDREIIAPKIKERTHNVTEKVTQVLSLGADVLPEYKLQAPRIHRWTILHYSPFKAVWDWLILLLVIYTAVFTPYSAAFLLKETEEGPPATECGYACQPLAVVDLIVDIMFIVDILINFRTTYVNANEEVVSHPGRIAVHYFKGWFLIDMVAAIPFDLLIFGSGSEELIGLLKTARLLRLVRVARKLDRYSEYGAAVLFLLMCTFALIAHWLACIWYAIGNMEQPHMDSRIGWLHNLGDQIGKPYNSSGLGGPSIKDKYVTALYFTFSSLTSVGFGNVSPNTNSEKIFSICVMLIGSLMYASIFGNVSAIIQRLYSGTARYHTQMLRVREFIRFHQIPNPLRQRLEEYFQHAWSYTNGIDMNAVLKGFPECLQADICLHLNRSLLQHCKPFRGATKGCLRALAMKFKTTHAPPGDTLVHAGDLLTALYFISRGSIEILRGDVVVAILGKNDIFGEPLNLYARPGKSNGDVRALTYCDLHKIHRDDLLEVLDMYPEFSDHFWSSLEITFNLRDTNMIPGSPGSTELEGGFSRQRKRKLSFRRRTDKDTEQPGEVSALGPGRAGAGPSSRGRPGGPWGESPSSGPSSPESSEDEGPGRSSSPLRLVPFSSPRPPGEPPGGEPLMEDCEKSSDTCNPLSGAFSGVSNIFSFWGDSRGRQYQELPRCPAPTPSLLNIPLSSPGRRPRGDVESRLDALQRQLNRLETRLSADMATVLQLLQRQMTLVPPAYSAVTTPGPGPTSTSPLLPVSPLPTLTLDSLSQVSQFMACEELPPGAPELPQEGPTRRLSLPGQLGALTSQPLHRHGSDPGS

[10] = AUCt in CD1 mouse at 10 mg/kg, po by LC-MS/MS analysis; type: ADME, organism-based; conditions: in vivo
[11] = MRT in CD1 mouse at 10 mg/kg, po by LC-MS/MS analysis; type: ADME, organism-based; conditions: in vivo
[12] = Cmax in CD1 mouse at 10 mg/kg, po by LC-MS/MS analysis; type: ADME, organism-based; design: dose 10 mg/kg, route oral; conditions: in vivo
[13] = Elimination half life in CD1 mouse at 10 mg/kg, po by LC-MS/MS analysis; type: ADME, organism-based; conditions: in vivo, read-out: beta t1/2 (converted)
[14] = AUCt in Sprague-Dawley rat at 100 mg/kg, po by LC-MS/MS analysis; type: ADME, organism-based; conditions: in vivo
[15] = Elimination half life in Sprague-Dawley rat at 100 mg/kg, po by LC-MS/MS analysis; type: ADME, organism-based; conditions: in vivo, read-out: beta t1/2 (converted)
[16] = Oral bioavailability in Sprague-Dawley rat at 100 mg/kg by LC-MS/MS analysis; type: ADME, organism-based; conditions: in vivo
[17] = Solubility of the compound in pH 6.8 intestinal juice incubated at 37 degC for 24 hrs by LC/MS/MS analysis; type: physicochemical
[18] = Solubility of the compound in pH 1.2 gastric juice incubated at 37 degC for 24 hrs by LC/MS/MS analysis; type: physicochemical
[19] = Solubility of the compound in water incubated at 37 degC for 24 hrs by LC/MS/MS analysis; type: physicochemical

For `CC(=O)NC[C@H]1CN(c2ccc(N3CCOCC3)c(F)c2)C(=O)O1` [LINEZOLID], the ED50 (Staphylococcus aureus [1]) was 4.53 mg/kg and the ED50 (Staphylococcus aureus [2]) was 4.83 mg/kg.

Work on `C[C@@H]1CN2c3c(cc4c(N5CC6(CCC6)OC5=O)noc4c3F)CC3(C(=O)NC(=O)NC3=O)[C@H]2[C@H](C)O1` yielded an MIC (Staphylococcus aureus [3]) of 0.125 to 0.25 µg/mL (≈ 0.243 to 0.487 µM), an MIC (Staphylococcus aureus [4]) of 0.06 to 1 µg/mL (≈ 0.117 to 1.95 µM) and an MIC [5] of 0.06 to 0.25 µg/mL (≈ 0.117 to 0.487 µM). For the same molecule, the MIC [6] was 0.03 to 0.25 µg/mL (≈ 0.0584 to 0.487 µM), the MIC (Streptococcus pneumoniae) was 0.25 to 1 µg/mL (≈ 0.487 to 1.95 µM) and the MIC (Streptococcus pyogenes) was 0.25 to 0.5 µg/mL (≈ 0.487 to 0.974 µM). For the same molecule, the IC50 [7] was > 200 µM and the IC50 (DNA gyrase) was 15.6 µM.

Molecule `COc1cccc2c1C(=O)c1c(O)c3c(c(O)c1C2=O)C[C@@](O)(C(=O)CO)C[C@@H]3O[C@H]1C[C@H](N)[C@H](O)[C@H](C)O1` [DOXORUBICIN] has an IC50 [7] of 0.6 µM.

In the case of `CC[C@H]1CN(c2noc3c(F)c4c(cc23)CC2(C(=O)NC(=O)NC2=O)[C@H]2[C@H](C)O[C@H](C)CN42)C(=O)S1`, the MIC (Staphylococcus aureus [3]) is reported as < 0.03 µg/mL, the MIC (Staphylococcus aureus [4]) is reported as < 0.03 µg/mL and the MIC [6] is reported as < 0.03 µg/mL. For the same molecule, the MIC (Streptococcus pyogenes) was < 0.03 µg/mL, the IC50 [7] was 128 µM and the IC50 (DNA gyrase) was 9.1 µM.

`COC[C@H]1CN(c2noc3c(F)c4c(cc23)CC2(C(=O)NC(=O)NC2=O)[C@H]2[C@H](C)O[C@H](C)CN42)C(=O)S1` gave an MIC (Staphylococcus aureus [3]) of 0.03 to 0.25 µg/mL (≈ 0.0562 to 0.469 µM), an MIC (Staphylococcus aureus [4]) of 0.03 to 0.5 µg/mL (≈ 0.0562 to 0.937 µM) and an MIC [5] of 0.03 to 0.125 µg/mL (≈ 0.0562 to 0.234 µM). The MIC [6] was < 0.03 µg/mL, the MIC (Streptococcus pyogenes) was 0.25 to 0.5 µg/mL (≈ 0.469 to 0.937 µM) and the MIC50 (Neisseria gonorrhoeae) was 0.25 µg/mL (≈ 0.469 µM). The MIC90 (Neisseria gonorrhoeae) was 0.5 µg/mL (≈ 0.937 µM), the Tmax [8] was 0.58 h and the IC50 [9] was > 40 µM. The IC50 [7] was > 200 µM and the IC50 (DNA gyrase) was 9.4 µM.

With `C[C@@H]1CN2c3c(cc4c(N5C[C@H](C)SC5=O)noc4c3F)CC3(C(=O)NC(=O)NC3=O)[C@H]2[C@H](C)O1` the MIC [5] was < 0.03 µg/mL, the MIC [6] was < 0.03 µg/mL and the MIC (Streptococcus pneumoniae) was < 0.03 µg/mL. For the same molecule, the MIC (Streptococcus pyogenes) was < 0.03 µg/mL, the MIC50 (Neisseria gonorrhoeae) was 0.06 µg/mL (≈ 0.119 µM) and the MIC90 (Neisseria gonorrhoeae) was 0.125 µg/mL (≈ 0.248 µM). It also gave an AUC(0-t) [10] of 22.5 µg·h/mL, an MRT [11] of 11.4 h and a Cmax [12] of 2080 ng/mL. The Tmax [8] was 1.33 h, the half-life [13] was 7.68 h and the AUC(0-t) [14] was 452 µg·h/mL. For the same molecule, the half-life [15] was 8.63 h, the bioavailability [16] was 52.7% and the solubility at 24 h [17] was 11.3 µM (≈ 5.69 µg/mL). For the same molecule, the solubility at 24 h [18] was 9.4 µM (≈ 4.73 µg/mL), the solubility at 24 h [19] was 10.2 µM (≈ 5.14 µg/mL) and the IC50 [9] was > 40 µM. The IC50 [7] was > 200 µM, the ED50 (Staphylococcus aureus [1]) was 9.59 mg/kg and the IC50 (DNA gyrase) was 12.6 µM.
